Laboratory results published in patent US20100160351A1, “PHARMACEUTICAL COMPOSITIONS AND METHODS FOR TREATING HYPERURICEMIA AND RELATED DISORDERS” (NUON THERAPEUTICS, INC., priority 2008, published 2010).

Tested on: monosodium urate (MSU) crystal-induced air pouch inflammation
Assay: Air Pouch Model 4: MSU crystal air pouch, rodent model of gout
Assay type: in vivo, male Sprague-Dawley rats
Details: 30 min before MSU; for Average Exudate Volume, Mean / Average Plasma Extravasation, OD620 nm, Mean / Total WBC in Sample, Mean / WBC in exudate, Mean: 4 h after MSU
Procedure: The objective of this study was to evaluate the anti-inflammatory potency of Tranilast. This evaluation was carried out in male Sprague-Dawley rats in a rodent model of gout. The animals were injected subcutaneously with 20 ml of sterile air, followed three days later by a supplemental injection with 20 ml of sterile air. Six days after the initial sterile air injection, the rats were injected intravenously with Evan's Blue and pretreated for thirty minutes with oral administration of 3 mg/kg, 10 mg/kg, 30 mg/kg, 100 mg/kg, or 300 mg/kg tranilast. After the pretreatment period, the rats were injected with 150 mg of monosodium urate (MSU) crystals (10 mg/ml) into the air pouch. Four hours later, the air pouch was injected with 5 ml heparinized saline and the entire contents of the air pouch removed, recording the total volume. The air pouch contents were evaluated for plasma extravasation and total white blood cell (WBC) count.
(§1) On day 0 the rats were anesthetized in a biological cabinet, the nape of the neck was cleansed with 70% isopropanol followed by iodine tincture (VEDCO). Twenty ml sterile (0.22 μm, Millipore, Cat. SLGSV255F) air was injected subcutaneously using a 23 G×2 inch needle fixed to a 20 ml syringe. The rats were returned to routine housing. No adverse reactions were observed.
as §1, with “day 3” for “day 0”, “μm, Fisher Scientific,” for “μm, Millipore,”, “Cat. 09-720-3)” for “Cat. SLGSV255F)”
On day 6 the rats were weighed (Mettler, Model PE3000, SN: F69474) and injected intravenously injected with 2 ml/kg Evans Blue. The animals were dosed orally with 0.06 ml/kg, 0.2 ml/kg, 0.6 ml/kg, 2 ml/kg, or 6 ml/kg tranilast or 6 ml/kg vehicle.
Thirty minutes after test material administration, the rats were anesthetized and six groups (2-7) were injected into the air pouch with 15 ml MSU using a 19 G×2 inch needle fitted to a 20 ml syringe. Group 1 was injected with 15 ml saline. The rats were returned to their cages, no adverse affects were observed.
Four hours after MSU/saline injection, the rats were anesthetized and 5 ml 10 U/ml heparinized saline was injected into the air pouch. The air pouch was gently massaged, the contents immediately removed using a 14 G×1 inch needle fitted to a 6 ml syringe, and the exudate volume recorded. An aliquot of the exudate was transferred to heparin-treated microtainer tubes (Becton Dickinson, Cat. 365958) for white blood cell (WBC) counting. The remainder of the exudate was centrifuged (Hermle Labrotechnik, Model Z200A, SN: 44060036), the supernatants removed and evaluated at OD620nm (Spectronic Unicam, Model 4000 1/4, SN: 3SGD003006) for plasma extravasation.

SMILES: COc1ccc(/C=C/C(=O)Nc2ccccc2C(=O)O)cc1OC [Tranilast, 2-[[3-(3,4-dimethoxyphenyl)-1-oxo-2-propenyl]amino]benzoic acid]
- Average Exudate Volume, Mean (3 mg/kg oral): 9.6 mL
- Average Plasma Extravasation, OD620 nm, Mean (3 mg/kg oral): 1.940
- Total WBC in Sample, Mean (3 mg/kg oral): 368228000
- WBC in exudate, Mean (3 mg/kg oral): 38510000 cells/ml
- Average Exudate Volume, Mean (10 mg/kg oral): 7.7 mL
- Average Plasma Extravasation, OD620 nm, Mean (10 mg/kg oral): 1.662
- Total WBC in Sample, Mean (10 mg/kg oral): 471436000
- WBC in exudate, Mean (10 mg/kg oral): 61200000 cells/ml
- Average Exudate Volume, Mean (30 mg/kg oral): 7.1 mL
- Average Plasma Extravasation, OD620 nm, Mean (30 mg/kg oral): 1.089
- Total WBC in Sample, Mean (30 mg/kg oral): 286935000
- WBC in exudate, Mean (30 mg/kg oral): 39650000 cells/ml
- Average Exudate Volume, Mean (100 mg/kg oral): 5.1 mL
- Average Plasma Extravasation, OD620 nm, Mean (100 mg/kg oral): 1.180
- Total WBC in Sample, Mean (100 mg/kg oral): 159916000
- WBC in exudate, Mean (100 mg/kg oral): 31740000 cells/ml
- Average Exudate Volume, Mean (300 mg/kg oral): 3.9 mL
- Average Plasma Extravasation, OD620 nm, Mean (300 mg/kg oral): 0.613
- Total WBC in Sample, Mean (300 mg/kg oral): 77451111
- WBC in exudate, Mean (300 mg/kg oral): 19466667 cells/ml
- inhibition of plasma extravasation (highest dose 300 mg/kg oral): 67%
- inhibition of white blood cell infiltration (highest dose 300 mg/kg oral): 80%
- effect on MSU-induced parameters (plasma extravasation, leukocyte infiltration) (oral 3-300 mg/kg): dose-dependent inhibition
